Columns and labels:
Format in all cases: cell-based
[1] = tested on: S. aureus Smith ATCC 0329; assay: MIC, microtiter broth serial dilution test; details: Staphylococcus aureus, ATCC0329
E. faecalis ATCC 0004 = assay: MIC, microtiter broth serial dilution test; details: Enterococcus faecalis, ATCC0004
M. catarrhalis ATCC 0324 = assay: MIC, microtiter broth serial dilution test; details: Moraxella catarrhalis, ATCC0324
H. influenzae ATCC 0529 = assay: MIC, microtiter broth serial dilution test; details: Haemophilus influenzae, ATCC0529
S. pneumoniae 0541 = assay: MIC, microtiter broth serial dilution test; details: Streptococcus pneumoniae
S. pyogenes 0542 = assay: MIC, microtiter broth serial dilution test; details: Streptococcus pyogenes
[2] = tested on: erythromycin resistant strains of Streptococcus pyogenes; assay: MIC, erythromycin resistant strains
[3] = tested on: erythromycin resistant strains of Streptococcus pneumoniae; assay: MIC, erythromycin resistant strains

| SMILES | MIC [1] [µg/mL] | MIC (E. faecalis ATCC 0004) [µg/mL] | MIC (M. catarrhalis ATCC 0324) [µg/mL] | MIC (H. influenzae ATCC 0529) [µg/mL] | MIC (S. pneumoniae 0541) [µg/mL] | MIC (S. pyogenes 0542) [µg/mL] | MIC [2] [µg/mL] | MIC [3] [µg/mL] |
| --- | --- | --- | --- | --- | --- | --- | --- | --- |
| CC[C@H]1OC(=O)[C@H](C)[C@@H](O[C@H]2C[C@@](C)(OC)[C@@H](OC(=O)NCCOCCOCCCc3ccc4c(c3)c(=O)c(C(=O)O)cn4CC)[C@H](C)O2)[C@H](C)[C@@H](O[C@@H]2O[C@H](C)CC(N(C)C)[C@H]2O)[C@](C)(O)C[C@@H](C)CN(C)[C@H](C)[C@@H](O)[C@]1(C)O (some centres unmarked) [Example 4, 4,1-(2-{2-[3-(3-Carboxy-1-ethyl-4-oxo-1,4-dihydro-quinolin-6-yl)-propoxy]-ethoxy}-ethylcarbamoyl)-azithromycin] | ≤ 0.125 | ≤ 0.125 | ≤ 0.5 | ≤ 0.125 | ≤ 0.125 | ≤ 0.125 | – | – |
| CC[C@H]1OC(=O)[C@H](C)[C@@H](O[C@H]2C[C@@](C)(OC)[C@@H](OC(=O)NCCOCCOCC#Cc3ccc4c(c3)c(=O)c(C(=O)O)cn4CC)[C@H](C)O2)[C@H](C)[C@@H](O[C@@H]2O[C@H](C)CC(N(C)C)[C@H]2O)[C@](C)(O)C[C@@H](C)CN(C)[C@H](C)[C@@H](O)[C@]1(C)O (some centres unmarked) [Example 3, 4″-(2-{2-[3-(3-Carboxy-1-ethyl-4-oxo-1,4-dihydro-quinolin-6-yl)-prop-2-ynyloxy]-ethoxy}-ethylcarbamoyl)-azithromycin] | ≤ 0.125 | ≤ 0.125 | ≤ 0.5 | ≤ 0.125 | ≤ 0.125 | ≤ 0.125 | – | – |
| CC[C@H]1OC(=O)[C@H](C)[C@@H](OC2C[C@@](C)(OC)[C@@H](OC(=O)NCCOCCOCCNc3cc4c(=O)c(C(=O)O)cn(C5CC5)c4cc3Cl)[C@H](C)O2)[C@H](C)[C@@H](OC2O[C@H](C)C[C@H](N(C)C)[C@H]2O)[C@](C)(OC)C[C@@H](C)C(=O)[C@H](C)[C@@H](O)[C@]1(C)O (some centres unmarked) [Example 1, 4″-O-2-{2-[2-(3-Carboxy-7-chloro-1-cyclopropyl-4-oxo-1,4-dihydro-quinolin-6-ylamino)-ethoxy]-ethoxy}-ethylcarbamoyl-6-O-methyl erythromycin A] | ≤ 0.125 | ≤ 0.125 | – | ≤ 2 | ≤ 0.125 | ≤ 0.125 | ≤ 0.125 | ≤ 0.125 |
| CC[C@H]1OC(=O)[C@H](C)[C@@H](OC2C[C@@](C)(OC)[C@H](OC(=O)NCCOCCOCCNc3cc4c(=O)c(C(=O)O)cn(C5CC5)c4cc3Cl)[C@@H](C)O2)[C@H](C)[C@@H](O[C@@H]2O[C@H](C)CC(N(C)C)[C@H]2O)[C@](C)(O)C[C@@H](C)CN(C)[C@H](C)[C@@H](O)[C@]1(C)O (some centres unmarked) [Example 2, 4″-O-2-{2-[2-(3-Carboxy-7-chloro-1-cyclopropyl-4-oxo-1,4-dihydro-quinolin-6-ylamino)-ethoxy]-ethoxy}-ethylcarbamoyl-azithromycin] | ≤ 0.125 | ≤ 0.125 | – | ≤ 2 | ≤ 0.125 | ≤ 0.125 | ≤ 0.125 | ≤ 0.125 |
